Reference: patent US7329782B2, “Compounds for the treatment of metabolic disorders” (Wellstat Therapeutics Corporation, priority 2001, dated 2008)

Tests used:
[1] = tested on: mice challenged with multiple high doses of STZ; assay: Mortality in severe insulin-dependent diabetes, multiple high doses of STZ (Example C); type: in vivo, balb/C mice; settings: STZ 75 mg/kg i.p. x 5 days, oral 30 mg/kg/day, after three weeks of daily treatment, 20 mice/group
Method: Female balb/C mice (19 wks of age at start of experiment) were challenged with multiple high doses of STZ (75 mg/kg i.p. on 5 consecutive days). Animals were then divided in two groups (20 mice/group) matched for severity of diabetes. Four days after the last dose of STZ, treatments were initiated. One group received Vehicle (0.4 ml of 0.75% HPMC, p.o.), and the other group received oral COMPOUND AA (30 mg/kg/day). After three weeks of daily treatment, cumulative mortality in the Vehicle Control group was 19/20 mice. In contrast, only 5/20 of the COMPOUND AA mice died during this time.

[2] = tested on: streptozotocin diabetic mice; assay: Streptozotocin diabetic mice treated with oral Compound AH for 14 weeks (Example A); type: in vivo, Balb/C mice; settings: STZ diabetic mice, 250 mg/kg daily oral, after several weeks of treatment
Method: Streptozotocin (STZ) is a toxin that selectively destroys insulin-producing pancreatic beta cells, and is widely used to induce insulin-dependent diabetes in experimental animals.
Female Balb/C mice (8 weeks old; 18-20 grams body weight) were treated with streptozotocin (STZ) (50 mg/kg i.p. on each of five consecutive days). Fourteen days after the last dose of STZ, blood glucose was measured to verify that the animals were diabetic, and the mice were divided into two groups of 5 animals each, one group receiving Compound AH (250 mg/kg) daily by oral gavage, and the other receiving vehicle (0.75% hydroxypropylmethylcellulose, a suspending agent, in water). […] Blood samples were taken periodically for determination of blood glucose concentrations, and body weights were also recorded.

[3] = tested on: mice with severe insulin-dependent diabetes induced by streptozotocin; assay: Survival of mice with lethal insulin-dependent diabetes, single dose of streptozotocin (Example B); type: in vivo, Balb/C mice
Method: Female Balb/C mice (14 weeks old) were treated with a single dose of streptozotocin (175 mg/kg i.p.) to induce severe insulin-dependent diabetes. Seven days later, mice were divided into three treatment groups: Compound AH, pioglitazone, and vehicle. Mice were treated daily via oral gavage, and survival was monitored over time.

ob/ob mice [4] = assay: Acute hypoglycemic effect in ob/ob obese diabetic mice, Expt 2 (Example G); type: in vivo; settings: Mus musculus, single oral dose 250 mg/kg, 6 hours, read-out: % Reduction vs Control
Method: Male ob/ob mice (50-55 grams; blood glucose ˜300 mg/dL) were divided into groups of five animals each, and given a single oral dose of test drug (250 mg/kg) suspended in 0.5% carboxymethylcellulose vehicle; a control group received oral vehicle alone. Six hours after oral administration of test drugs or vehicle (control), blood samples were obtained from a tail vein and glucose content was determined with a glucometer.

ob/ob mice [5] = tested on: ob/ob mice
From the text: Male lean (ob/+ heterozygote) and obese (ob/ob homozygote) C57BL/6 mice approximately 8 weeks of age were obtained from Jackson Labs (Bar Harbor, Me.) and randomly assigned into groups of 5 animals such that body weights and blood glucose concentrations were similar between groups. […] Blood glucose was routinely determined with glucose test strips and a Glucometer Elite XL device (Bayer Corporation). At selected time points, blood samples (˜100 microliters) were obtained with a heparinized capillary tube via the retro-orbital sinus for serum chemistry analysis.
The dose ranges of compounds in this experiment were chosen to include both suboptimal and potentially supraoptimal doses.

[6] = tested on: high fat-fed C57B1/6J mice; assay: Circulating triglycerides, free fatty acids, insulin and leptin in high fat-fed C57B1/6J mice (Example L); type: in vivo; settings: oral gavage, after 4 weeks of drug treatment
From the text: The high fat-fed mouse is a model for the hypertriglyceridemia and high circulating fatty acid levels, and the insulin and leptin resistance that are found in people at risk for and with obesity, diabetes, cardiovascular disease and other disorders. Male C57B1/6J mice, approximately 8 weeks of age, were randomly assigned into groups of 6 animals. […] Mice were fed a high-fat diet (diet number D12451, containing 45% of calories as fat (Research Diets, New Brunswick, N.J.)) for 6 weeks. […]

[7] = tested on: high fat-fed Sprague Dawley rats; assay: Circulating glucose, insulin, triglycerides and free fatty acids in high fat-fed Sprague Dawley rats (Example M); type: in vivo; settings: at all doses (10, 30 and 100 mg/kg)
Method: All animals were maintained in a temperature-controlled (25° C.) facility with a strict 12 h light/dark cycle and were given free access to water and food. Rats were fed a high-fat diet (diet number D12451 (containing 45% of calories as fat), Research Diets, New Brunswick, N.J.) for one month prior to drug treatment.
At the indicated time points, blood samples (˜100 μl) were obtained via the tail vein for serum chemistry analysis.

Q: With O=C(O)CCC(=O)c1ccc(OCc2ccccc2F)cc1 [Compound AA, 4-(4-(2-Fluorobenzyloxy)phenyl)-4-oxobutyric acid] as the compound, how does the “cumulative mortality (mice died)” value [1] read?
A: The value was 5/20.

Q: What does the source list for O=C(O)CCC(=O)c1ccc(OCc2c(F)cccc2F)cc1 [Compound AH, 4-(4-(2,6-Difluorobenzyloxy)phenyl)-4-oxobutyric acid]?
A: blood glucose concentrations [2]: began to decrease toward baseline; Survivors (Survival at 12 weeks) ([3]; STZ 175 mg/kg i.p. mice, daily oral gavage 250 mg/kg/day): Four of the five; body weights of survivors ([3]; at 12 weeks, 250 mg/kg/day oral): recovered and were maintained in the normal range

Q: Which results are given for O=C(O)CCC(=O)c1cccc(OCc2c(F)cccc2F)c1 [Compound AW, 4-(3-(2,6-Difluorobenzyloxy)phenyl)-4-oxobutyric acid]?
A: change in vivo at 250 mg/kg (ob/ob mice [4]): -53.1 ± 3.1%; serum triglycerides and fatty acids (ob/ob mice [5]; 100 to 300 mg/kg/day, versus comparators at their optimum antihyperglycemic doses): reduced serum triglycerides and fatty acids better than did either rosiglitazone or pioglitazone; reduction in blood glucose (ob/ob mice [5]; daily oral, over the dose range): comparable to that achieved with pioglitazone and rosiglitazone; serum liver enzymes (ALT, AST, SDH) (ob/ob mice [5]; doses ranging from 30 mg/kg/day to 300 mg/kg/day): dose-dependent decrease; weight gain relative to vehicle-treated mice (ob/ob mice [5]; four week treatment period, over the dose range): dose-dependent attenuation of weight gain

Q: Cc1cccc(C)c1COc1cccc(C(=O)CCC(=O)O)c1 [Compound BI, 4-(3-(2,6-Dimethylbenzyloxy)phenyl)-4-oxobutyric acid] was tested. Which “insulin serum levels (FIG. 1)” value [6] did it give?
A: Its value is “effective at lowering”.

Q: What about the “leptin serum levels (FIG. 2)” value [6] of the same compound?
A: The value was “effective at lowering”.

Q: What about the free fatty acids [7] of the same compound?
A: The free fatty acids was “reduced”.

Q: How did the “insulin serum levels (FIG. 1)” value [6] turn out when Cc1cccc(C)c1COc1cccc(C(=O)CCC(=O)[O-])c1.[Na+] [Compound BL, 4-(3-(2,6-Dimethylbenzyloxy)phenyl)-4-oxobutyric acid Sodium salt] was run?
A: The value was “effective at lowering”.

Q: What about the “leptin serum levels (FIG. 2)” value [6] of the same compound?
A: Its value is “effective at lowering”.
